Measured values taken from article PMC10649961, “Novel Mitochondria-Targeted Amphiphilic Aminophosphonium Salts and Lipids Nanoparticles: Synthesis, Antitumor Activity and Toxicity” (Nanomaterials, 2023).
Like-named read-outs stand apart in the source and are kept apart here.

Tests used:
[1] = tested on: Staphylococcus aureus ATCC 6538 P FDA 209P; experiment: Antimicrobial activity, serial microdilutions, Sa; format: cell-based; conditions: Staphylococcus aureus; for MIC: read-out: Minimum Inhibitory Concentration (MIC); for MBC: read-out: Minimum bactericidal and fungicidal concentrations (MBC, MFC)
In short: (§1)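 Compounds were serially diluted in broth: Mueller-Hinton for the bacterial strains, Sabouraud for the yeast. Each determination was done in triplicate.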

[2] = tested on: Bacillus cereus ATCC 10702 NCTC 8035; experiment: Antimicrobial activity, serial microdilutions, Bc; format: cell-based; set-up: key to Minimum bactericidal and fungicidal concentrations (MBC, MFC): – means non-active; conditions: for MIC / Minimum bactericidal and fungicidal concentrations (MBC, MFC): Bc; for MIC: read-out: Minimum Inhibitory Concentration (MIC)
In short: (§2)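 Broth microdilution, triplicate; media: Mueller-Hinton (bacteria), Sabouraud (C. albicans). MRSA-1 = patient isolate, chronic tonsillitis.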

[3] = tested on: Enterococcus faecalis ATCC 29212; experiment: Antimicrobial activity, serial microdilutions, Ef; format: cell-based; set-up: key to Minimum Inhibitory Concentration (MIC) / Minimum bactericidal and fungicidal concentrations (MBC, MFC): – means non-active; conditions: for MIC: Enterococcus faecalis, ATCC29212, read-out: Minimum Inhibitory Concentration (MIC)
In short: as §1

[4] = tested on: MRSA-1; experiment: Antimicrobial activity, serial microdilutions, MRSA-1; format: cell-based, S. aureus; conditions: Staphylococcus aureus; for MIC: read-out: Minimum Inhibitory Concentration (MIC); for MBC: read-out: Minimum bactericidal and fungicidal concentrations (MBC, MFC)
In short: as §2

[5] = tested on: MRSA-2; experiment: Antimicrobial activity, serial microdilutions, MRSA-2; format: cell-based, S. aureus; conditions: Staphylococcus aureus; for MIC: read-out: Minimum Inhibitory Concentration (MIC); for MBC: read-out: Minimum bactericidal and fungicidal concentrations (MBC, MFC)
In short: as §1

[6] = tested on: Escherichia coli ATCC 25922; experiment: Antimicrobial activity, serial microdilutions, Ec; format: cell-based; set-up: key to Minimum Inhibitory Concentration (MIC) / Minimum bactericidal and fungicidal concentrations (MBC, MFC): – means non-active
In short: as §2

[7] = tested on: Pseudomonas aeruginosa ATCC 9027; experiment: Antimicrobial activity, serial microdilutions, Pa; format: cell-based; set-up: key to Minimum Inhibitory Concentration (MIC) / Minimum bactericidal and fungicidal concentrations (MBC, MFC): – means non-active
In short: as §2

[8] = tested on: Candida albicans ATCC 10231; experiment: Antimicrobial activity, serial microdilutions, Ca; format: cell-based; set-up: key to Minimum Inhibitory Concentration (MIC) / Minimum bactericidal and fungicidal concentrations (MBC, MFC): – means non-active; conditions: Ca
In short: as §2

[9] = tested on: M-HeLa
[10] = tested on: MCF-7
[11] = tested on: HuTu 80
[12] = tested on: PANC-1
[13] = tested on: A549
[14] = tested on: PC3
[15] = tested on: T98G
[16] = tested on: Hep G2
[17] = tested on: SK-OV-3; conditions: reference normal cell line not marked at the place (ns cells)
[18] = tested on: DU-145
[19] = tested on: M-HeLa; experiment: cells; conditions: Homo sapiens, 48 h, read-out: Cytotoxic Effects (IC50)
[20] = tested on: MCF-7; experiment: cells; conditions: Homo sapiens, MCF7, 48 h, read-out: Cytotoxic Effects (IC50)
[21] = tested on: HuTu 80; experiment: cells; conditions: Homo sapiens, HuTu80, 48 h, read-out: Cytotoxic Effects (IC50)
[22] = tested on: PANC-1; experiment: cells; conditions: Homo sapiens, PANC-1, 48 h, read-out: Cytotoxic Effects (IC50)
[23] = tested on: A549; experiment: cells; conditions: Homo sapiens, A549, 48 h, read-out: Cytotoxic Effects (IC50)
[24] = tested on: T98G; experiment: cells; conditions: Homo sapiens, 48 h, read-out: Cytotoxic Effects (IC50)
[25] = tested on: Hep G2; experiment: cells; conditions: Homo sapiens, HepG2, 48 h, read-out: Cytotoxic Effects (IC50)
[26] = tested on: SK-OV-3; experiment: cells; conditions: Homo sapiens, SK-OV-3, 48 h, read-out: Cytotoxic Effects (IC50)
[27] = tested on: DU-145; experiment: cells; conditions: Homo sapiens, DU-145, 48 h, read-out: Cytotoxic Effects (IC50), DU-145, MTT assay, 48 h
[28] = calculated relative to the cell line Chang liver (b)
[29] = reference normal cell line not marked at the place (ns cells)
[30] = calculated relative to the cell line WI38 (a)

SMILES | MIC [1] | MBC [1] | MIC ([2]; Bacillus cereus) | Minimum bactericidal and fungicidal concentrations (MBC, MFC) [3] | MIC [3] | MIC [4] | MBC [4] | MIC [5] | MBC [5] | Minimum Inhibitory Concentration (MIC) [6] | Minimum bactericidal and fungicidal concentrations (MBC, MFC) [7] | Minimum Inhibitory Concentration (MIC) [8] | Minimum bactericidal and fungicidal concentrations (MBC, MFC) [8] | selectivity index (SI) [17] | IC50 [19] | IC50 [20] | IC50 [21] | IC50 [22] | IC50 [23] | IC50 [24] | other results
CCCCCCCC[P+](c1ccccc1)(N(CC)CC)N(CC)CC [5b, Bis(diethylamino)(octyl)(phenyl)phosphonium iodide] | 7.8 ± 0.6 µM | 250 ± 20 µM | 7.8 ± 0.6 µM | – | 125 ± 11 µM | 15.6 ± 1.2 µM | 500 ± 48 µM | 15.6 ± 1.2 µM | 250 ± 20 µM | – | – | – | – | ns (ns—no selectivity) | 1.8 ± 0.1 µM | 2.6 ± 0.2 µM | 4 ± 0.3 µM | 1.2 ± 0.1 µM | 20 ± 1.6 µM | 4.3 ± 0.3 µM | Minimum bactericidal and fungicidal concentrations (MBC, MFC) [2]: –; MBC ([6]; Escherichia coli, ATCC25922, read-out: Minimum bactericidal and fungicidal concentrations (MBC, MFC)): 500 ± 49 µM; MIC ([7]; Pseudomonas aeruginosa, ATCC9027, read-out: Minimum Inhibitory Concentration (MIC)): 500 ± 46 µM; selectivity index (SI) [9, 28]: 2.2; selectivity index (SI) [10, 28]: 1.5; selectivity index (SI) [11, 28]: 1.0; selectivity index (SI) [12, 28]: 3.3; selectivity index (SI) [13, 29]: ns (ns—no selectivity); selectivity index (SI) [14, 29]: ns (ns—no selectivity); selectivity index (SI) [15, 28]: 1.0; selectivity index (SI) [16, 28]: 1.4; selectivity index (SI) [18, 28]: 2.0; IC50 [25]: 2.9 ± 0.3 µM; IC50 [26]: 25.6 ± 1.8 µM; IC50 [27]: 2 ± 0.1 µM
CCCCCC[P+](c1ccccc1)(c1ccccc1)N(CC)CC [6a, (Diethylamino)(hexyl)diphenylphosphonium iodide] | 62.5 ± 5.5 µM | 125 ± 10 µM | 31.3 ± 2.3 µM | – | 125 ± 11 µM | 62.5 ± 5.3 µM | 500 ± 47 µM | 62.5 ± 5.6 µM | 62.5 ± 5.6 µM | – | – | – | – | ns (ns—no selectivity) | 5.8 ± 0.4 µM | 17 ± 1.3 µM | 0.1 ± 0.007 µM | 5.5 ± 0.4 µM | 48.2 ± 3.4 µM | 18.4 ± 1.5 µM | MBC ([2]; Bacillus cereus, read-out: Minimum bactericidal and fungicidal concentrations (MBC, MFC)): 500 ± 46 µM; Minimum bactericidal and fungicidal concentrations (MBC, MFC) [6]: –; Minimum Inhibitory Concentration (MIC) [7]: –; selectivity index (SI) [9, 30]: 4.8; selectivity index (SI) [10, 30]: 1.6; selectivity index (SI) [11, 30]: 277; selectivity index (SI) [12, 30]: 5.0; selectivity index (SI) [13, 29]: ns (ns—no selectivity); selectivity index (SI) [14, 30]: 6.9; selectivity index (SI) [15, 30]: 1.5; selectivity index (SI) [16, 29]: ns (ns—no selectivity); selectivity index (SI) [18, 30]: 11; IC50 [25]: 34.4 ± 2.4 µM; IC50 [26]: 36.8 ± 2.6 µM; IC50 [27]: 2.6 ± 0.3 µM
CCCCCCCC[P+](c1ccccc1)(c1ccccc1)N(CC)CC [6b, (Diethylamino)(octyl)diphenylphosphonium iodide] | 7.8 ± 0.6 µM | 125 ± 11 µM | 3.9 ± 0.4 µM | – | 62.5 ± 5.5 µM | 7.8 ± 0.6 µM | 31.3 ± 2.6 µM | 7.8 ± 0.6 µM | 31.3 ± 2.5 µM | – | – | – | – | ns (ns—no selectivity) | 0.95 ± 0.08 µM | 9.5 ± 0.8 µM | 0.2 ± 0.01 µM | 1.3 ± 0.1 µM | 13 ± 1.1 µM | 3.4 ± 0.2 µM | Minimum bactericidal and fungicidal concentrations (MBC, MFC) [2]: –; Minimum bactericidal and fungicidal concentrations (MBC, MFC) [6]: –; Minimum Inhibitory Concentration (MIC) [7]: –; selectivity index (SI) [9, 30]: 17; selectivity index (SI) [10, 30]: 1.7; selectivity index (SI) [11, 30]: 81; selectivity index (SI) [12, 30]: 12; selectivity index (SI) [13, 30]: 1.2; selectivity index (SI) [14, 30]: 19; selectivity index (SI) [15, 30]: 5.0; selectivity index (SI) [16, 30]: 1.4; selectivity index (SI) [18, 30]: 20; IC50 [25]: 11.6 ± 0.9 µM; IC50 [26]: 17.6 ± 1.4 µM; IC50 [27]: 0.8 ± 0.07 µM
